Test results published in ChEMBL document CHEMBL2429768, “Eco-friendly synthesis and antimicrobial activities of substituted-5-(1H-indol-3-yl)methylene)-2,2-dimethyl-1,3-dioxane-4,6-dione derivatives” (2013).
Values after ≈ are worked out from the molar mass of the structure shown.

Tests used:
Format in all cases: functional
[1] = system: Bacillus subtilis; test: Antibacterial activity against Bacillus subtilis at 200 ug/ml after 24 hrs by agar well diffusion method; conditions: read-out: DIZ
[2] = system: Escherichia coli; test: Antibacterial activity against Escherichia coli ATCC 8739 at 500 ug/ml after 24 hrs by agar well diffusion method; conditions: ATCC 8739, 24 h, read-out: DIZ
[3] = system: Staphylococcus aureus; test: Antibacterial activity against Staphylococcus aureus ATCC 6538 at 300 ug/ml after 24 hrs by agar well diffusion method; conditions: ATCC 6538, 24 h, read-out: DIZ
[4] = system: Fusarium oxysporum; test: Antifungal activity against Fusarium oxysporum after 72 hrs by agar well diffusion method
[5] = system: Staphylococcus aureus; test: Antibacterial activity against Staphylococcus aureus ATCC 6538 after 24 hrs by agar well diffusion method; conditions: ATCC 6538, 24 h
[6] = system: Staphylococcus aureus; test: Antibacterial activity against Staphylococcus aureus ATCC 6538 at 50 ug/ml after 24 hrs by agar well diffusion method; conditions: ATCC 6538, 24 h, read-out: DIZ
[7] = system: Klebsiella pneumoniae; test: Antibacterial activity against Klebsiella pneumoniae at 100 ug/ml after 24 hrs by agar well diffusion method; conditions: read-out: DIZ
[8] = system: Aspergillus niger; test: Antifungal activity against Aspergillus niger at 500 ug/ml after 72 hrs by agar well diffusion method; conditions: read-out: DIZ
[9] = system: Bacillus subtilis; test: Antibacterial activity against Bacillus subtilis at 300 ug/ml after 24 hrs by agar well diffusion method; conditions: read-out: DIZ
[10] = system: Rhizoctonia solani; test: Antifungal activity against Rhizoctonia solani at 500 ug/ml after 72 hrs by agar well diffusion method; conditions: read-out: DIZ
[11] = system: Fusarium oxysporum; test: Antifungal activity against Fusarium oxysporum at 200 ug/ml after 72 hrs by agar well diffusion method; conditions: read-out: DIZ
[12] = system: Klebsiella pneumoniae; test: Antibacterial activity against Klebsiella pneumoniae at 500 ug/ml after 24 hrs by agar well diffusion method; conditions: read-out: DIZ
[13] = system: Aspergillus niger; test: Antifungal activity against Aspergillus niger after 72 hrs by agar well diffusion method
[14] = system: Aspergillus flavus; test: Antifungal activity against Aspergillus flavus at 500 ug/ml after 72 hrs by agar well diffusion method; conditions: read-out: DIZ
[15] = system: Escherichia coli; test: Antibacterial activity against Escherichia coli ATCC 8739 at 200 ug/ml after 24 hrs by agar well diffusion method; conditions: ATCC 8739, 24 h, read-out: DIZ
[16] = system: Aspergillus niger; test: Antifungal activity against Aspergillus niger at 50 ug/ml after 72 hrs by agar well diffusion method; conditions: read-out: DIZ
[17] = system: Aspergillus flavus; test: Antifungal activity against Aspergillus flavus at 200 ug/ml after 72 hrs by agar well diffusion method; conditions: read-out: DIZ
[18] = system: Aspergillus flavus; test: Antifungal activity against Aspergillus flavus at 100 ug/ml after 72 hrs by agar well diffusion method; conditions: read-out: DIZ
[19] = system: Fusarium oxysporum; test: Antifungal activity against Fusarium oxysporum at 50 ug/ml after 72 hrs by agar well diffusion method; conditions: read-out: DIZ
[20] = system: Klebsiella pneumoniae; test: Antibacterial activity against Klebsiella pneumoniae after 24 hrs by agar well diffusion method
[21] = system: Bacillus subtilis; test: Antibacterial activity against Bacillus subtilis at 50 ug/ml after 24 hrs by agar well diffusion method; conditions: read-out: DIZ
[22] = system: Klebsiella pneumoniae; test: Antibacterial activity against Klebsiella pneumoniae at 50 ug/ml after 24 hrs by agar well diffusion method; conditions: read-out: DIZ
[23] = system: Bacillus subtilis; test: Antibacterial activity against Bacillus subtilis at 100 ug/ml after 24 hrs by agar well diffusion method; conditions: read-out: DIZ
[24] = system: Aspergillus flavus; test: Antifungal activity against Aspergillus flavus at 300 ug/ml after 72 hrs by agar well diffusion method; conditions: read-out: DIZ
[25] = system: Rhizoctonia solani; test: Antifungal activity against Rhizoctonia solani after 72 hrs by agar well diffusion method
[26] = system: Staphylococcus aureus; test: Antibacterial activity against Staphylococcus aureus ATCC 6538 at 500 ug/ml after 24 hrs by agar well diffusion method; conditions: ATCC 6538, 24 h, read-out: DIZ
[27] = system: Staphylococcus aureus; test: Antibacterial activity against Staphylococcus aureus ATCC 6538 at 200 ug/ml after 24 hrs by agar well diffusion method; conditions: ATCC 6538, 24 h, read-out: DIZ
[28] = system: Aspergillus niger; test: Antifungal activity against Aspergillus niger at 100 ug/ml after 72 hrs by agar well diffusion method; conditions: read-out: DIZ
[29] = system: Fusarium oxysporum; test: Antifungal activity against Fusarium oxysporum at 300 ug/ml after 72 hrs by agar well diffusion method; conditions: read-out: DIZ
[30] = system: Fusarium oxysporum; test: Antifungal activity against Fusarium oxysporum at 500 ug/ml after 72 hrs by agar well diffusion method; conditions: read-out: DIZ
[31] = system: Rhizoctonia solani; test: Antifungal activity against Rhizoctonia solani at 50 ug/ml after 72 hrs by agar well diffusion method; conditions: read-out: DIZ
[32] = system: Rhizoctonia solani; test: Antifungal activity against Rhizoctonia solani at 100 ug/ml after 72 hrs by agar well diffusion method; conditions: read-out: DIZ
[33] = system: Aspergillus flavus; test: Antifungal activity against Aspergillus flavus at 50 ug/ml after 72 hrs by agar well diffusion method; conditions: read-out: DIZ
[34] = system: Klebsiella pneumoniae; test: Antibacterial activity against Klebsiella pneumoniae at 300 ug/ml after 24 hrs by agar well diffusion method; conditions: read-out: DIZ
[35] = system: Fusarium oxysporum; test: Antifungal activity against Fusarium oxysporum at 100 ug/ml after 72 hrs by agar well diffusion method; conditions: read-out: DIZ
[36] = system: Aspergillus niger; test: Antifungal activity against Aspergillus niger at 200 ug/ml after 72 hrs by agar well diffusion method; conditions: read-out: DIZ
[37] = system: Aspergillus flavus; test: Antifungal activity against Aspergillus flavus after 72 hrs by agar well diffusion method
[38] = system: Bacillus subtilis; test: Antibacterial activity against Bacillus subtilis after 24 hrs by agar well diffusion method
[39] = system: Rhizoctonia solani; test: Antifungal activity against Rhizoctonia solani at 200 ug/ml after 72 hrs by agar well diffusion method; conditions: read-out: DIZ
[40] = system: Escherichia coli; test: Antibacterial activity against Escherichia coli ATCC 8739 at 50 ug/ml after 24 hrs by agar well diffusion method; conditions: ATCC 8739, 24 h, read-out: DIZ
[41] = system: Escherichia coli; test: Antibacterial activity against Escherichia coli ATCC 8739 after 24 hrs by agar well diffusion method; conditions: ATCC 8739, 24 h
[42] = system: Escherichia coli; test: Antibacterial activity against Escherichia coli ATCC 8739 at 100 ug/ml after 24 hrs by agar well diffusion method; conditions: ATCC 8739, 24 h, read-out: DIZ
[43] = system: Aspergillus niger; test: Antifungal activity against Aspergillus niger at 300 ug/ml after 72 hrs by agar well diffusion method; conditions: read-out: DIZ
[44] = system: Rhizoctonia solani; test: Antifungal activity against Rhizoctonia solani at 300 ug/ml after 72 hrs by agar well diffusion method; conditions: read-out: DIZ
[45] = system: Escherichia coli; test: Antibacterial activity against Escherichia coli ATCC 8739 at 300 ug/ml after 24 hrs by agar well diffusion method; conditions: ATCC 8739, 24 h, read-out: DIZ
[46] = system: Bacillus subtilis; test: Antibacterial activity against Bacillus subtilis at 500 ug/ml after 24 hrs by agar well diffusion method; conditions: read-out: DIZ
[47] = system: Klebsiella pneumoniae; test: Antibacterial activity against Klebsiella pneumoniae at 200 ug/ml after 24 hrs by agar well diffusion method; conditions: read-out: DIZ
[48] = system: Staphylococcus aureus; test: Antibacterial activity against Staphylococcus aureus ATCC 6538 at 100 ug/ml after 24 hrs by agar well diffusion method; conditions: ATCC 6538, 24 h, read-out: DIZ

`CC1(C)OC(=O)C(=Cc2c[nH]c3ccccc23)C(=O)O1` was tested, and the zone of inhibition at 200 µg/mL [1] was 14 mm, the zone of inhibition at 500 µg/mL [2] was 32 mm and the zone of inhibition at 300 µg/mL [3] was 20 mm. The MIC [4] was 25 µg/mL (≈ 92.2 µM), the MIC [5] was 20 µg/mL (≈ 73.7 µM) and the zone of inhibition at 50 µg/mL [6] was 8 mm. The zone of inhibition at 100 µg/mL [7] was 16 mm, the zone of inhibition at 500 µg/mL [8] was 26 mm and the zone of inhibition at 300 µg/mL [9] was 17 mm. For the same compound, the zone of inhibition at 500 µg/mL [10] was 32 mm, the zone of inhibition at 200 µg/mL [11] was 17 mm and the zone of inhibition at 500 µg/mL [12] was 33 mm. For the same compound, the MIC [13] was 30 µg/mL (≈ 111 µM), the zone of inhibition at 500 µg/mL [14] was 24 mm and the zone of inhibition at 200 µg/mL [15] was 18 mm. The zone of inhibition at 50 µg/mL [16] was 7 mm, the zone of inhibition at 200 µg/mL [17] was 13 mm and the zone of inhibition at 100 µg/mL [18] was 10 mm. The zone of inhibition at 50 µg/mL [19] was 10 mm, the MIC [20] was 10 µg/mL (≈ 36.9 µM) and the zone of inhibition at 50 µg/mL [21] was 6 mm. The zone of inhibition at 50 µg/mL [22] was 11 mm, the zone of inhibition at 100 µg/mL [23] was 11 mm and the zone of inhibition at 300 µg/mL [24] was 17 mm. It also gave an MIC [25] of 25 µg/mL (≈ 92.2 µM), a zone of inhibition at 500 µg/mL [26] of 27 mm and a zone of inhibition at 200 µg/mL [27] of 16 mm. The zone of inhibition at 100 µg/mL [28] was 11 mm, the zone of inhibition at 300 µg/mL [29] was 21 mm and the zone of inhibition at 500 µg/mL [30] was 31 mm. The zone of inhibition at 50 µg/mL [31] was 10 mm, the zone of inhibition at 100 µg/mL [32] was 15 mm and the zone of inhibition at 50 µg/mL [33] was 5 mm. For the same compound, the zone of inhibition at 300 µg/mL [34] was 25 mm, the zone of inhibition at 100 µg/mL [35] was 14 mm and the zone of inhibition at 200 µg/mL [36] was 15 mm. The MIC [37] was 35 µg/mL (≈ 129 µM), the MIC [38] was 20 µg/mL (≈ 73.7 µM) and the zone of inhibition at 200 µg/mL [39] was 19 mm. It also gave a zone of inhibition at 50 µg/mL [40] of 10 mm, an MIC [41] of 10 µg/mL (≈ 36.9 µM) and a zone of inhibition at 100 µg/mL [42] of 15 mm. The zone of inhibition at 300 µg/mL [43] was 19 mm, the zone of inhibition at 300 µg/mL [44] was 24 mm and the zone of inhibition at 300 µg/mL [45] was 22 mm. For the same compound, the zone of inhibition at 500 µg/mL [46] was 25 mm, the zone of inhibition at 200 µg/mL [47] was 20 mm and the zone of inhibition at 100 µg/mL [48] was 12 mm.
